Test results: patent US11413348B2, “Low molecular weight cationic lipids for oligonucleotide delivery” (SIRNA THERAPEUTICS, INC., priority 2010, dated 2022)

Columns and labels:
[1] = Determination of cationic lipid levels in rat liver (LC/MS-MS); assay type: in vivo; conditions: rats, FIG. 3
Method: Liver tissue was weighed into 20-ml vials and homogenized in 9 v/w of water using a GenoGrinder 2000 (OPS Diagnostics, 1600 strokes/min, 5 min). A 50 μL aliquot of each tissue homogenate was mixed with 300 μL of extraction/protein precipitating solvent (50/50 acetonitrile/methanol containing 500 nM internal standard) and the plate was centrifuged to sediment precipitated protein. A volume of 200 μL of each supernatant was then transferred to separate wells of a 96-well plate and 10 μl samples were directly analyzed by LC/MS-MS.
Standards were prepared by spiking known amounts of a methanol stock solution of compound into untreated rat liver homogenate (9 vol water/weight liver). Aliquots (50 μL) each standard/liver homogenate was mixed with 300 μL of extraction/protein precipitating solvent (50/50 acetonitrile/methanol containing 500 nM internal standard) and the plate was centrifuged to sediment precipitated protein. A volume of 200 μL of each supernatant was transferred to separate wells of a 96-well plate and 10 μl of each standard was directly analyzed by LC/MS-MS.
Absolute quantification versus standards prepared and extracted from liver homogenate was performed using an Aria LX-2 HPLC system (Thermo Scientific) coupled to an API 4000 triple quadrupole mass spectrometer (Applied Biosystems). […]

[2] = Rhesus monkey in vivo evaluation of ALT increases; conditions: serum, FIG. 6
Method: Alanine aminotransferase (ALT) is measured in serum that is harvested from clotted monkey whole blood after centrifugation. A Roche Modular System automated chemistry analyzer measures the enzymatic activity of ALT in the serum by using International Federation of Clinical Chemistry standardized procedures and reagents. The analyzer's computer uses absorbance measurements to calculated ALT activity in the sample as compared to a standard curve. The ALT activity is reported in International Units per Liter (IU/L).

[3] = Rat in vivo evaluation of toxicity (serum ALT and AST); conditions: ApoB siRNA RDV, tail vein, 24 hours after dosing, FIG. 2
Method: Six hours post dose, food is removed from the cages. Animal necropsy is performed 24 hours after LNP dosing. Rats are anesthetized under isoflurane for 5 minutes, then maintained under anesthesia by placing them in nose cones continuing the delivery of isoflurane until ex-sanguination is completed. Blood is collected from the vena cava using a 23 gauge butterfly venipuncture set and aliquoted to serum separator vacutainers for serum chemistry analysis. Punches of the excised caudate liver lobe are taken and placed in RNALater (Ambion) for mRNA analysis. Preserved liver tissue was homogenized and total RNA isolated using a Qiagen bead mill and the Qiagen miRNA-Easy RNA isolation kit following the manufacturer's instructions. Liver ApoB mRNA levels were determined by quantitative RT-PCR. Message was amplified from purified RNA utilizing a rat ApoB commercial probe set (Applied Biosystems Cat #RN01499054_m1). The PCR reaction was performed on an ABI 7500 instrument with a 96-well Fast Block. The ApoB mRNA level is normalized to the housekeeping PPIB (NM 011149) mRNA. PPIB mRNA levels were determined by RT-PCR using a commercial probe set (Applied Biosytems Cat. No. Mm00478295_m1). Results are expressed as a ratio of ApoB mRNA/PPIB mRNA. All mRNA data is expressed relative to the PBS control dose. […]

serum ApoE = biological target: T1, serum ApoE (Macaca mulatta, UniProt Q28502); test: Heparin Sepharose HI-TRAP binding assay; design: species or system rhesus monkey; conditions: HI-TRAP binding upon rhesus serum incubation, 2×DPBS conditions
T1 construct: from tissue; host or cells: rhesus monkey serum
Method: Lipid nanoparticles (LNP) with neutral surface charge are not retained after injection onto heparin sepharose with 1× Dulbecco's phosphate buffered saline (DPBS) as the running buffer but elute in the column void volume. […] Lipid nanoparticles with surface bound ApoE bind to heparin sepharose with high affinity and are eluted only at high salt (1M NaCl).
Lipid nanoparticles were incubated at 37° C. for 20 min at a final siRNA concentration of 50 μg/mL with various concentrations of either purified or recombinant human apolipoprotein E or 0.1-50% rat/mouse/rhesus monkey/human serum in 1× Dulbccco's phosphate buffered saline (DPBS). After incubation with ApoE or serum LNP samples were diluted 10-fold using 1×DPBS and analyzed by heparin sepharose chromatography. Peak area of retained LNP (after subtraction of appropriate blank signals) is compared to total peak area of LNP control without ApoE and/or serum incubation to determine the percentage of the LNP which undergoes shift to high affinity heparin interaction after incubation with ApoE/serum.
A heparin sepharose HI-TRAP™ chromatography column (GE Healthcare; 1 mL bed volume) is equilibrated with either 1× or 2× Dulbecco's PBS; the higher 2× salt concentration is used for LNPs with higher intrinsic retention on heparin sepharose (presumably due to higher positive surface charge). • Mobile Phase A: 1× or 2×DPBS • Mobile Phase B: 1M NaCl in 10 mM sodium phosphate buffer, pH 7.0 • 100% A delivered isocratically for 10 min followed by step gradient to 100% B; hold for additional 10 min; step gradient back to 100% A and reequilibrate for additional 10 min prior to injection of next sample • Flow rate: 1 mL/min • Sample injection volume: 50 μL. • Detection: UV @260 nm HI-TRAP™ Binding Results Upon Rhesus Serum Incubation (2×DPBS Conditions)

T1 sequence (Q28502 19-295): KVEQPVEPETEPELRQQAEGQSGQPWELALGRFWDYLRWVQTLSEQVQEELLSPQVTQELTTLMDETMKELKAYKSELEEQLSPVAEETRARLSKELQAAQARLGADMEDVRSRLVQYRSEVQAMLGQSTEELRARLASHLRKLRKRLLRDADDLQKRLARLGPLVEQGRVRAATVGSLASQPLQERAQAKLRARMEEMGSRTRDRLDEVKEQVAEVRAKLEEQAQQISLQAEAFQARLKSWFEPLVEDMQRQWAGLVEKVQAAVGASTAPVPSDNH

| SMILES | cationic lipid liver levels compared with RDV containing DLinKC2DMA (Compound 45) or MC3 (Compound 46) [1] | peak ALT elevations compared with RDV containing DLinKC2DMA (Compound 45) or MC3 (Compound 46) [2] | tolerability (serum ALT and AST) compared with RDV containing DLinKC2DMA (Compound 45) or MC3 (Compound 46) [3] | % Bound (serum ApoE) [%] |
| --- | --- | --- | --- | --- |
| CCCCC/C=C\C/C=C\CCCCCCCCCC(CCCCCCCCC)CCN(C)C (centres unmarked) [Compound 32, (13Z,16Z)—N,N-dimethyl-3-nonyldocosa-13,16-dien-1-amine] | either similar to or lower than | lower peak ALT elevations | improved tolerability | 100 |
| CCCCCCCCCC(CCCCCCCC1CC1CCCCCCCC)N(C)C [Compound 33, N,N-dimethyl-1-[(1S,2R)-2-octylcyclopropyl]hepladecan-8-amine] | either similar to or lower than | lower peak ALT elevations | improved tolerability | <5 |
